Laboratory results from publication PMC6037691, “Selenazolyl-hydrazones as Novel Selective MAO Inhibitors With Antiproliferative and Antioxidant Activities: Experimental and In-silico Studies” (Frontiers in Chemistry, 2018).

Columns and labels:
HBL-100 (breast) = assay: Antiproliferative activity, HBL-100; assay type: cell-based, human; conditions: for GI50: Homo sapiens
Method: (§1) The in vitro antiproliferative activity of investigated compounds was evaluated against six human solid tumor cell lines: A549 (non-small cell lung), HBL-100, (breast), HeLa (cervix), SW1573 (non-small cell lung), as drug sensitive lines, T-47D (breast) and WiDr (colon) as drug resistant lines. These cell lines were a kind gift from Prof. G. J. Peters (VU Medical Center, Amsterdam, The Netherlands). For selectivity studies, the human fibroblasts BJ-hTert cell line was used, which was obtained from Dr. R. Freire (HUC, Tenerife, Canary Islands). Cells were kept in culture medium under standard conditions: RPMI 1640 medium, fetal bovine serum (5%), glutamine (2 mM), penicillin G (100 units/mL) and streptomycin (0.1 mg/mL). Antiproliferative tests were conducted as described earlier (Skehan et al., [1990]; Miranda et al., [2006]). Tested compounds were dissolved in DMSO at an initial concentration of 40 mM. DMSO was used as negative control (0.25% v/v). Antiproliferative activity of the compounds was expressed as GI50, which is the concentration of the compound that inhibits 50% of the culture growth.

[1] = Total antioxidant capacity (TAOC), modified phosphomolybdenum method; conditions: concentration providing 0.500 of absorbance at 695 nm; mean ± SD, n = 3
Method: Volume of 0.4 mL of sample solution (50–1,000 μM) was mixed with 1.6 mL of reagent solution [0.6 M H2SO4, 28 mM Na3PO4, and 4 mM (NH4)2MoO4] and resulting mixtures were incubated at 95°C for 90 min. The cooled reaction mixtures were then centrifuged for 10 min (3,000 rpm). The absorbance of the supernatant solution was measured, 1 h after centrifugation, at 695 nm against reagent solution as blank. An increased absorbance in reading in both assays indicated increased antioxidant power, expressed as EC50 values (the sample concentration giving absorbance of 0.500 from the graph of absorbance at 700 nm or 695 nm against compound concentration) (Prieto et al., [1999]).

[2] = Oxygen radical absorbance capacity (ORAC) assay; conditions: Trolox equivalents; mean ± SD, n = 3
Method: A modification of original protocol was used (Ou et al., [2001]). Stock solutions of fluorescein substrate (5 μM) and free radical generator AAPH (0.5 M) were prepared in 75 mM potassium phosphate buffer (pH = 7.4). Volume of 100 μL of sample solutions or Trolox in DMSO (20 μM) were mixed with 1,485 μL of buffer and 15 μL of fluorescein solution. The 30 min reaction at 37°C was initiated by adding 250 μL of AAPH solution. Fluorescence conditions were as follows: excitation and emission wavelengths 485 and 511 nm, respectively, slits 2 nm. The relative sample ORAC value was expressed as Trolox equivalents (TE).

[3] = tested on: SW1573 (non-small cell lung); assay: Antiproliferative activity, SW1573; assay type: cell-based, human; conditions: for GI50: Homo sapiens
Method: as §1

MAO B = molecular target: T1, MAO B (Homo sapiens, UniProt P27338); assay: MAO B inhibition, discontinuous fluorimetric kynuramine assay; assay type: biochemical; conditions: for inhibition at 1 µM: 1 μM inhibitor, mean ± SD, n = 2, normalized to control
T1 construct: purchased Sigma-Aldrich
T1 sequence (P27338 1-520): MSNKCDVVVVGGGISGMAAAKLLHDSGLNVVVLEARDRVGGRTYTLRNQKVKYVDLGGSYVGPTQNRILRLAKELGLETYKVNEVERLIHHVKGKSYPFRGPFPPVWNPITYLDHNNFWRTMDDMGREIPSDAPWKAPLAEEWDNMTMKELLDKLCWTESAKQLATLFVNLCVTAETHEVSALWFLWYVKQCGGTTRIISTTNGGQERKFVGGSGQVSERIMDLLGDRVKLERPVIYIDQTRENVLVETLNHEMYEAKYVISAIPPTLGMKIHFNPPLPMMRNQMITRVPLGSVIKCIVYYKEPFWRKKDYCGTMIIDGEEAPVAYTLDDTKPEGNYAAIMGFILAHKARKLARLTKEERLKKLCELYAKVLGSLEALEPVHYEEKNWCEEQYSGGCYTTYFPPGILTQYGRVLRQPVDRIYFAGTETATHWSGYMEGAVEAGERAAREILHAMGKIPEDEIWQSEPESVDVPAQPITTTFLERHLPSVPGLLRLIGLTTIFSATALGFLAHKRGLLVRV
Method: MAO A and B inhibition capacities were investigated using a discontinuous fluorimetric assay (Meiring et al., [2013]) as described previously by using human recombinant membrane-bound MAO purchased from Sigma-Aldrich (Affini et al., [2018]). Briefly, remained enzyme activity with inhibitor, either 1 μM (one-point) or concentrations ranging from 0.0001 to 10 μM, was assessed in the presence of kynuramine [2 × KM, KM = 20 μM (MAO A), KM = 30 μM (MAO B)] in potassium phosphate buffer (pH 7.4). Reactions were started by addition of enzyme and stopped by manual addition of sodium hydroxide (2 N) after 20 min. Enzyme activity was determined by detection of 4-hydroxyquinoline (λEx = 320 nm, λEm = 405 nm). Data were analyzed using GraphPad PRISM 6. For one-point measurements data were calculated as percentage of control and expressed as mean ± standard deviation (%). […] Data were obtained from two (one-point measurements) or at least three (IC50 values) independent experiments, each performed in duplicates.

[4] = tested on: six human solid tumor cell lines; assay: Antiproliferative activity, panel as a whole; assay type: cell-based; set-up: key: moderate activity (GI50 = 10–100 μM); good activity (GI50 = 1–10 μM); inactive (GI50 > 100 μM); conditions: five cell lines of the six
Method: as §1

| IC50 (MAO B; mean, 95% CI, at least three experiments) | Compound | antiproliferative activity class HBL-100 (HBL-100 (breast)) | GI50 (HBL-100 (breast)) | EC50 [1] | ORAC [2] | antiproliferative activity class SW1573 [3] | GI50 [3] | inhibition at 1 µM (MAO B) | antiproliferative activity class against five cell lines [4] |
| --- | --- | --- | --- | --- | --- | --- | --- | --- | --- |
| 0.252 µM | C(=NNc1nc(-c2ccccc2)c[se]1)c1ccccc1 [Compound 1, 2-(2-benzylidenehydrazinyl)-4-phenyl-1,3-selenazole] | moderate activity (moderate activity (GI50 = 10–100 μM)) | 91 ± 12 µM | 648 ± 55 µM | 0.75 ± 0.05 TE | moderate activity (moderate activity (GI50 = 10–100 μM)) | 24 ± 8 µM | 89.4 ± 1.5% |  |
|  | COc1ccc(-c2c[se]c(NN=Cc3ccccc3)n2)cc1 [Compound 1-OMe, 2-(2-benzylidenehydrazinyl)-4-(4-methoxyphenyl)-1,3-selenazole] |  | > 100 µM | 548 ± 53 µM | 0.74 ± 0.06 TE |  | 42 ± 7.7 µM | 33 ± 11.6% | inactive |
|  | O=[N+]([O-])c1ccccc1C=NNc1nc(-c2ccccc2)c[se]1 [Compound 2, 2-(2-(2-nitrobenzylidene)hydrazinyl)-4-phenyl-1,3-selenazole] |  | 21 ± 8.6 µM | 357 ± 41 µM | 0.82 ± 0.07 TE | good activity (good activity (GI50 = 1–10 μM)) | 5.3 ± 0.6 µM | 64.8 ± 6.1% |  |
|  | Cc1ccc(-c2c[se]c(NN=Cc3ccccc3[N+](=O)[O-])n2)cc1 [Compound 2-Me, 2-(2-(2-nitrobenzylidene)hydrazinyl)-4-(p-tolyl)-1,3-selenazole] |  | 95 ± 8.1 µM | 416 ± 45 µM | 0.77 ± 0.05 TE | good activity (good activity (GI50 = 1–10 μM)) | 4.6 ± 1.2 µM | 22.1 ± 8.7% |  |
|  | COc1ccc(-c2c[se]c(NN=Cc3ccccc3[N+](=O)[O-])n2)cc1 [Compound 2-OMe, 4-(4-methoxyphenyl)-2-(2-(2-nitrobenzylidene)hydrazinyl)-1,3-selenazole] |  | > 100 µM | 433 ± 39 µM | 0.82 ± 0.07 TE |  | 46 ± 10 µM | 35.9 ± 11.2% |  |
|  | O=[N+]([O-])c1cccc(C=NNc2nc(-c3ccccc3)c[se]2)c1 [Compound 3, 2-(2-(3-nitrobenzylidene)hydrazinyl)-4-phenyl-1,3-selenazole] |  | 28 ± 0.8 µM | 325 ± 38 µM | 0.90 ± 0.06 TE |  | 16 ± 4.8 µM | 57.5 ± 11.4% |  |
|  | Cc1ccc(-c2c[se]c(NN=Cc3cccc([N+](=O)[O-])c3)n2)cc1 [Compound 3-Me, 2-(2-(3-nitrobenzylidene)hydrazinyl)-4-(p-tolyl)-1,3-selenazole] |  | 60 ± 9.5 µM | 571 ± 45 µM | 0.83 ± 0.05 TE |  | 18 ± 4.5 µM | 7.4 ± 27% |  |
|  | COc1ccc(-c2c[se]c(NN=Cc3cccc([N+](=O)[O-])c3)n2)cc1 [Compound 3-OMe, 4-(4-methoxyphenyl)-2-(2-(3-nitrobenzylidene)hydrazinyl)-1,3-selenazole] |  | > 100 µM | 632 ± 50 µM | 0.86 ± 0.07 TE | good activity (good activity (GI50 = 1–10 μM)) | 8.4 ± 0.2 µM | 23.8 ± 7.7% |  |
